Measured values from patent US4398937A, “Selective algaecides for control of cyanochloronta” (The University of Southern Mississippi, priority 1981, dated 1983).

Columns and labels:
Zooplankton [1] = assay: Field Experiment I, catfish pond, zooplankton; assay type: in vivo, copepods and rotifers; details: 10 ppm
Experimental: (§1) 1, 1980, to Mar. 19, 1981.
(§2) On July 30, 1980, most ponds had numbers of blue-green algae exceeding 2×10^6 cells/liter. These algae were predominantly Oscillatoria,Microcystis and Anacystis with smaller numbers of Nostoc, Anabaena and Lyngbya. The experimental pond had 1.2×10^6 cells/liter composed mainly of Microcystis sp. Large numbers of copepods and rotifers were present. On July 30, the pond was treated with 10 ppm potassium ricinoleate by distributing a 30% aqueous solution evenly through the water column by pump from a small boat. […] This is further substantiated by the dry weights and chlorophyll a levels.

Haematococcus = assay: Selective effect on algae in test tubes (Table V), Haematococcus; assay type: cell-based; details: for cells/ml: 13 days after innoculation, average of 3 samples
Experimental: (§3) Another laboratory experiment was run to further substantiate the selective effect of one of the algaecides, potassium ricinoleate. Two species of blue-green algae, Lyngbya and Cylindrospermum, and three species of green algae, Chlorella, Haematococcus and Stigeoclonium and Tribonema, a yellow-green alga of the division Chrysophycophyta, were treated as follows: Twenty ml test tubes of sterile BBM culture solution were innoculated with each alga. All species of algae were evaluated with three groups, control, 2.5 ppm algaecide and 7.5 ppm algaecide. Each group was run with triplicate samples.
(§4) Controls were counted 6 days after innoculation, algaecide was added to the treatment groups seven days after innoculation and all test tubes were counted thirteen days after innoculation. The results are shown in Table V. After seven days, there was a 31% reduction in the Lyngbya cultures at 2.5 ppm algaecide and a 40% reduction at 7.5 ppm. After seven days, there was a 60% reduction in Cylindrospermum cultures at 2.5 ppm algaecide and a 72% reduction at 7.5 ppm. […] After thirteen days, there was a 55% reduction in numbers at both 2.5 ppm and 7.5 ppm. After twenty days there was a 27% reduction at both concentrations. […] They are, like blue-green algae, often associated with taste and odor problems.

Chlorophyll a = assay: Field Experiment I, chlorophyll a; assay type: in vivo; details: 10 ppm
Experimental: as §1, §2

Cylindrospermum = assay: Selective effect on algae in test tubes (Table V), Cylindrospermum; assay type: cell-based; details: for cells/ml: 13 days after innoculation, average of 3 samples
Experimental: as §3, §4

blue-green algae [2] = assay: Field Experiment II, catfish pond, blue-green algae; assay type: in vivo, blue-green algae (Oscillatoria and Microcystis); details: 2 ppm
catfish fingerlings = assay: Toxicity to catfish fingerlings in aquaria; assay type: in vivo
Experimental: For any algaecide to be useful in aquaculture, it must be without harmful effects on fish populations in ponds to be treated. Experiments to determine the effects of potassium ricinoleate on fish were performed in two 250 gallon aquaria using various concentrations of the algaecide. Batches of 25 live 5 in. catfish fingerlings were treated with 5, 10, 15, 20, 30, 35 and 100 ppm algaecide and observed for 48 hours.

[3] = Field Experiment II, taste and odor of water; assay type: in vivo; details: 2 ppm on 5/26/81
zooplankton [4] = assay: Field Experiment II, catfish pond, zooplankton; assay type: in vivo; details: 2 ppm
[5] = test system: blue-green algae (Microcystis and Oscillatoria); assay: Sewage treatment test 2, dense bloom of blue-green algae; details: ten days after treatment
Excerpt: Ten days after treatment aeration was stopped and cell debris was allowed to settle.

Fish (adult catfish) = assay: Field Experiment II, taste and odor of fish; assay type: in vivo; details: for Fish Odor / Fish Taste: 2 ppm on 5/26/81
blue-green algae [6] = assay: Field Experiment III, pond, blue-green algae; assay type: in vivo, blue-green algae (Oscillatoria and Microcystis); details: 2 ppm on 6/9/81
Experimental: (§5) In Field Experiment III, a small two acre pond was monitored for a complete year for plankton organisms as before. Oscillatoria and Microcystis were usually the prevalent blue-green algae. On 6/9/81 the pond was experiencing a bloom consisting completely of Oscillatoria. Channel catfish from the ponds had the characteristic earthy, musty taste and odor of 4 and 4 respectively on the 0 to 5 scale. The pond was treated on this date with 2 ppm potassium ricinoleate, one of the selective algaecides, as before.

bluegill fingerlings = assay: Toxicity to bluegill fingerlings; assay type: in vivo; details: 5, 10, 15, 20, 30 and 35 ppm
Experimental: An additional experiment was conducted on live bluegill fingerlings at 5, 10, 15, 20, 30 and 35 ppm of the algaecide.

green algae = assay: Field Experiment III, pond, green algae; assay type: in vivo; details: 2 ppm on 6/9/81
Experimental: as §5

[7] = 7/31 post-treatment (treated July 30, 1980)
[8] = 168 h, read-out: reduction in cultures
[9] = scale 0 to 5 (5 worst, 0 undetectable), 6/1/81

## CCCCCC[C@@H](O)C/C=C\CCCCCCCC(=O)[O-].[K+]
Zooplankton [1]; [7]
  Zooplankton #/Liter: 2531 #/Liter
Zooplankton [1]; 8/1 post-treatment
  Zooplankton #/Liter: 2500 #/Liter
Zooplankton [1]; 8/6 post-treatment
  Zooplankton #/Liter: 4050 #/Liter
Zooplankton [1]; 8/19 post-treatment
  Zooplankton #/Liter: 2025 #/Liter
Zooplankton [1]; 9/6 post-treatment
  Zooplankton #/Liter: 4050 #/Liter
Zooplankton [1]; 9/23 post-treatment
  Zooplankton #/Liter: 506 #/Liter
Zooplankton [1]; 11/21 post-treatment (normal winter reduction)
  Zooplankton #/Liter: 1012 #/Liter
Zooplankton [1]; 12/14 post-treatment
  Zooplankton #/Liter: 1518 #/Liter
Zooplankton [1]; seven days after treatment
  numbers of zooplankton: essentially unchanged or increased in numbers
Haematococcus; 2.5 and 7.5 ppm, after seven days
  effect: stimulated
Haematococcus; 2.5 ppm
  cells/ml: 23000 cells/ml
Haematococcus; 7.5 ppm
  cells/ml: 52000 cells/ml
Chlorophyll a; [7]
  Chlorophyll a: .000 absorbance at 663 nm
Chlorophyll a; 8/1 post-treatment
  Chlorophyll a: .064 absorbance at 663 nm
Chlorophyll a; 8/6 post-treatment
  Chlorophyll a: .000 absorbance at 663 nm
Chlorophyll a; 8/19 post-treatment
  Chlorophyll a: .002 absorbance at 663 nm
Chlorophyll a; 9/6 post-treatment
  Chlorophyll a: .240 absorbance at 663 nm
Cylindrospermum; 2.5 ppm
  cells/ml: 2500 cells/ml
Cylindrospermum; 7.5 ppm
  cells/ml: 1770 cells/ml
Cylindrospermum; [8]
  inhibition of growth at 2.5 ppm: 60%
  inhibition of growth at 7.5 ppm: 72%
blue-green algae [2]; 5/26/81 B post-treat, 4 p.m., Deep, prevalent Mic
  Cells/liter bluegreen algae: 4.2 × 10^5 Cells/liter
blue-green algae [2]; 5/26/81 C post-treat, 4 p.m., Shallow, prevalent Ped
  Cells/liter bluegreen algae: 0 Cells/liter
blue-green algae [2]; 5/27/81 D, 9:40 p.m., Deep, prevalent Ped
  Cells/liter bluegreen algae: 1.18 × 10^4 Cells/liter
blue-green algae [2]; 5/27/81 E, 9:40 p.m., Shallow, prevalent Ped
  Cells/liter bluegreen algae: 0 Cells/liter
blue-green algae [2]; 5/28/81 F, 7 a.m., prevalent Ped
  Cells/liter bluegreen algae: 5.9 × 10^3 Cells/liter
blue-green algae [2]; 5/28/81 G, 11 a.m., prevalent Ped
  Cells/liter bluegreen algae: 0 Cells/liter
blue-green algae [2]; after two days
  blue-green algae after treatment: essentially no blue-green algae present
Catfish fingerlings; 35 ppm and lower, observed for 48 hours
  fish survival: All fish survived
Catfish fingerlings; 100 ppm, at 12 hours
  fish mortality: All fish had died
[3]; [9]
  Water Odor: 0
  Water Taste: 1
[3]; scale 0 to 5, 6/5/81
  Water Odor: 0
  Water Taste: 1
[3]; scale 0 to 5, 6/12/81
  Water Odor: 0
  Water Taste: 0
[3]; scale 0 to 5, 6/15/81
  Water Odor: 0
  Water Taste: 0
Juvenile channel catfish; 10 ppm, samples February through June, 1981
  taste or odor of cooked fish: no taste or odor problems
Juvenile channel catfish; in vivo
  health of juvenile catfish: fed and otherwise appeared healthy
Zooplankton [4]; 5/26/81 B post-treat, 4 p.m., Deep
  Zoo #'s/liter: 755 #'s/liter
Zooplankton [4]; 5/26/81 C post-treat, 4 p.m., Shallow
  Zoo #'s/liter: 2270 #'s/liter
Zooplankton [4]; 5/27/81 D, 9:40 p.m., Deep
  Zoo #'s/liter: 0 #'s/liter
Zooplankton [4]; 5/27/81 E, 9:40 p.m., Shallow
  Zoo #'s/liter: 1510 #'s/liter
Zooplankton [4]; 5/28/81 F, 7 a.m.
  Zoo #'s/liter: 756 #'s/liter
Zooplankton [4]; 5/28/81 G, 11 a.m.
  Zoo #'s/liter: 2270 #'s/liter
Zooplankton [4]; through June, 1981
  zooplankton after treatment: remained unchanged
[5]; 2.5 ppm
  cells/liter: 8.3 × 10^5 cells/liter
[5]; 5.0 ppm
  cells/liter: 7.9 × 10^5 cells/liter
[5]; 10.0 ppm
  cells/liter: 6.6 × 10^5 cells/liter
[5]; 15.0 ppm
  cells/liter: 4.4 × 10^5 cells/liter
[5]
  state of enumerated suspended cells: appeared dead
Fish (adult catfish); [9]
  Fish Odor: 2
  Fish Taste: 3
Fish (adult catfish); scale 0 to 5, 6/5/81
  Fish Odor: 1
  Fish Taste: 2
Fish (adult catfish); scale 0 to 5, 6/12/81
  Fish Odor: 1
  Fish Taste: 1
Fish (adult catfish); scale 0 to 5, 6/15/81
  Fish Odor: 0
  Fish Taste: 0
Fish (adult catfish); 2 ppm, over a three week period
  earthy musty taste and odor of fish: eliminated
blue-green algae [6]; 6/10/81, prevalent Osc, Mic
  Cells/liter bluegreen algae: 2.8 × 10^6 Cells/liter
blue-green algae [6]; 6/12/81, prevalent Osc
  Cells/liter bluegreen algae: 1.3 × 10^6 Cells/liter
blue-green algae [6]; 6/22/81, prevalent Ped
  Cells/liter bluegreen algae: 1.2 × 10^4 Cells/liter
blue-green algae [6]; June 22
  predominant alga after treatment: Pediastrum with isolated fragments of Oscillatoria filaments
Bluegill fingerlings
  fish survival: All bluegills survived
Green algae; 6/10/81
  Cells/liter green algae: 3.0 × 10^3 Cells/liter
Green algae; 6/12/81
  Cells/liter green algae: 1.4 × 10^3 Cells/liter
Green algae; 6/22/81
  Cells/liter green algae: 3.5 × 10^5 Cells/liter
